Experimental data as given in PubChem BioAssay (NCI).
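Five compound concentrations were applied to cells in 96-well plates for 48 hours; endpoints were derived by simple linear interpolation of the resulting dose-response curve. TGI: concentration producing complete growth inhibition.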

Legend:
Assay in all cases: DTP human tumour cell line panel, 48 h
[1] = system: BT-549 breast
[2] = system: HOP-62 NSCLC
[3] = system: HT29 colon
[4] = system: LOX IMVI melanoma
[5] = system: NCI-H23 lung
[6] = system: NCI/ADR-RES ovarian
[7] = system: RPMI-8226 leukemia
[8] = system: SK-MEL-2 melanoma
[9] = system: T-47D breast
[10] = system: HCC-2998 colon

Row | SMILES | TGI [1] [µM] | TGI [2] [µM] | TGI [3] [µM] | TGI [4] [µM] | TGI [5] [µM] | TGI [6] [µM] | TGI [7] [µM] | TGI [8] [µM] | TGI [9] [µM] | TGI [10] [µM]
1 | O=c1c2ccccc2nc2[nH][nH]c(=S)n12 | > 100 | > 100 | > 100 | > 100 | > 100 | > 100 | > 100 | > 100 | > 100 | –
2 | O=C(CNc1ccccc1Cl)Nn1c(-c2ccccc2)nc2ccccc2c1=O | 25.5 | 72.9 | > 10 | 29.5 | 40.8 | – | > 100 | – | – | 39.8
3 | Cc1cn(C2OC(C)(CO)C(O)C2O)c(=O)[nH]c1=O (stereo not given) | – | > 100 | > 100 | > 100 | > 100 | – | > 100 | > 100 | – | > 100
4 | CS(=O)(=O)OCCn1c(=O)n(CCOS(C)(=O)=O)c(=O)n(CCOS(C)(=O)=O)c1=O | > 100 | > 100 | > 100 | > 100 | > 100 | > 100 | > 100 | – | > 100 | > 100
5 | COc1cc(C2CC(C)(Nc3ccccc3)Oc3cc4c(cc32)OCO4)cc(OC)c1OC (stereo not given) | > 100 | > 55.1 | 0.619 | > 100 | > 33.6 | – | 50.1 | > 29.4 | – | 3.98
6 | CC(=O)N(C(C)=O)C1=C2c3ccccc3N(S(=O)(=O)c3ccccc3)C2n2c(=O)n(-c3ccccc3)c(=O)n2C1 (stereo not given) | – | > 100 | > 100 | 81.3 | 95.9 | – | 40.2 | 47.5 | – | 62.4
7 | CSc1cc(Cl)c(C)cc1S(=O)(=O)NC(=O)NNc1ccc(Cl)cc1 | – | > 100 | > 100 | > 100 | – | > 100 | – | > 100 | > 100 | > 100
8 | CCCNC(=O)CCC(C)[C@H]1CCC2C3C(C[C@H](OC(C)=O)[C@@]21C)[C@@]1(C)CCC2(C[C@H]1C[C@H]3OC(C)=O)OOC1(CCC(C)CC1)OO2 (stereo not given in full) | 60.5 | 3.47 | > 100 | – | 18.7 | 40.5 | 19.4 | 52.9 | 38.4 | 79.1
9 | O=C1C[C@H](Sc2ccccc2)C2(OCCO2)[C@@H](Sc2ccccc2)C1 | 5.41 | 13.6 | 3.7 | 2.17 | 6.08 | 4.92 | – | 26.3 | > 43.5 | 6.42
10 | CC(C(=O)n1nnc2ccccc21)N(c1ccccc1)c1ccccc1 (stereo not given) | – | > 100 | > 100 | > 100 | > 100 | – | > 100 | > 100 | – | > 100
11 | CC(=O)OCC1OC(n2cc([N+](=O)[O-])c(=O)[nH]c2=O)C(OC(C)=O)C(OC(C)=O)C1OC(C)=O (stereo not given) | – | > 100 | > 100 | > 100 | > 100 | – | > 100 | > 100 | – | > 100
12 | COc1cc(NS(C)(=O)=O)ccc1N1Cc2cnc3ccc4[nH]c(C)cc1c4c23 | > 100 | 71.9 | > 100 | > 100 | > 100 | > 100 | 88.2 | > 100 | – | > 100
